Experimental data reported in patent US10016382B2, “Method for decreasing skeletal muscle damage and/or oxidative stress in mammals” (LONZA INC., priority 2014, dated 2018).
“And” between values parts separate entries of the source, which are not always exact repeats. Equal values may be shown once.

Legend:
[1] = tested on: Thiobarbituric acid reactive substances (TBARS); experiment: Serum TBARS (oxidative stress), Example 1; format: in vivo, dog; details: for TBARS, serum, Mean / Change in TBARS, post-run minus pre-run: Ex.1, 250 mg/d; for Change in TBARS, post-run minus pre-run: following 15 mile long run at 13 wk, mean ± SEM
Method: (§1) Blood Analysis: Serum samples were taken at three different times from each dog during the 90 day period. The blood samples were collected as follows: 1.) just prior to scanning each dog for body composition at the beginning of the study, 2.) prior to the long run on the 13th week, and 3.) following the long run on the 13th week. The serum samples were analyzed for Phosphocreatine Kinase and Canine Myoglobin to determine the amount of muscle protein leakage that occurred following the long run and TBARS and Total Antioxidant Capacity (TAC) were determined to evaluate the antioxidant status of each of the test dogs during the exercise program. The final blood sample was taken 24 hr after the long run to obtain maximum protein leakage based on previous similar types of exercise research with human athletes. Biomarkers and Assay Methods: Blood was drawn from each dog using a serum separator tube at three different times during the 90 day period: 1.) just prior to scanning each dog for body composition at the beginning of the study, 2.) prior to the long run on the 13th week, and 3.) following the long run on the 13th week. The final blood sample was taken 24 hr after the long run to obtain maximum protein leakage based on previous similar types of exercise research with human athletes. Each time after the blood was drawn it was allowed to clot before being centrifuged for 15 min at 2000 g at 4° C. Serum was aliquoted into 1.5 mL microcentrifuge tubes and stored at −80° C. until assays were ran following the end of the study. Creatine kinase (CK) and canine myoglobin were measured to determine the amount of muscle protein leakage that occurred following the long run. Thiobarbituric acid reactive substances (TBARS) and total antioxidant capacity (TAC) were measured to evaluate the antioxidant status of each of the test dogs during the exercise program. Serum samples were analyzed for total antioxidant capacity (TAC) and thiobarbituric acid reactive substances (TBARS) using commercially available colorimetric kits supplied by Cayman Chemical Company (Ann Arbor, Mich.) per manufacturer instructions. Serum canine myoglobin levels were determined using a commercially available ELISA supplied by Innovate Research (Novi, Mich.) per manufacturer instructions. Creatine kinase activity was determined colorimetrically using a commercially available kit supplied by BioVision (San Francisco, Calif.).

[2] = tested on: canine myoglobin; experiment: Serum canine myoglobin ELISA (muscle damage biomarker), Example 1; format: in vivo, dog; details: for Change in Myoglobin, post-run minus pre-run: following 15 mile long run at 13 wk, mean ± SEM
Method: as §1

C[N+](C)(C)C[C@H](O)CC(=O)[O-] [L-carnitine]
TBARS Least Sq Mean ([1]; Baseline): 12.53 μM MDA | TBARS Least Sq Mean ([1]; Baseline, F): 14.1 μM MDA | TBARS Least Sq Mean ([1]; Baseline, M): 10.96 μM MDA | TBARS, serum, Mean ([1]; Baseline, both sexes): 12.37 uM MDA | TBARS, serum, Mean ([1]; Baseline, females): 14.10 uM MDA | TBARS, serum, Mean ([1]; Baseline, males): 10.96 uM MDA | TBARS, serum, Mean ([1]; Post-run, both sexes): 12.59 uM MDA | TBARS, serum, Mean ([1]; Post-run, females): 14.47 uM MDA | TBARS, serum, Mean ([1]; Post-run, males): 11.06 uM MDA | TBARS, serum, Mean ([1]; Pre-run, both sexes): 12.18 uM MDA | TBARS, serum, Mean ([1]; Pre-run, females): 15.13 uM MDA | TBARS, serum, Mean ([1]; Pre-run, males): 9.77 uM MDA | Change in TBARS, post-run minus pre-run ([1]; both sexes): 0.41 μM MDA and 0.41 ± 0.71 n = 20 μM MDA | Change in TBARS, post-run minus pre-run ([1]; females): −0.7 ± 1.1 n = 9 μM MDA | Change in TBARS, post-run minus pre-run ([1]; males): 1.3 ± 0.9 n = 11 μM MDA | TBARS Least Sq Mean ([1]; Post-run): 12.76 μM MDA | TBARS Least Sq Mean ([1]; Post-run, F): 14.47 μM MDA | TBARS Least Sq Mean ([1]; Post-run, M): 11.06 μM MDA | TBARS Least Sq Mean ([1]; Pre-run): 12.45 μM MDA | TBARS Least Sq Mean ([1]; Pre-run, F): 15.13 μM MDA | TBARS Least Sq Mean ([1]; Pre-run, M): 9.77 μM MDA | TBARS Least Sq Mean ([1]; Treatment * Sex, F): 14.1 μM MDA | TBARS Least Sq Mean ([1]; Treatment * Sex, M): 10.96 μM MDA | TBARS Least Sq Mean ([1]; Treatment level, all dogs): 12.53 μM MDA | TBARS, mixed model Estimate, term Time[Post-run-Pre-run] * Treatment[L-carnitine] ([1]; serum, model term): −0.943 | TBARS, mixed model Estimate, term Time[Post-run-Pre-run] * Treatment[L-carnitine] * Sex[F] ([1]; serum, model term): −0.763 | TBARS, mixed model Estimate, term Time[Pre-run-Baseline] * Treatment[L-carnitine] ([1]; serum, model term): 0.8244 | TBARS, mixed model Estimate, term Time[Pre-run-Baseline] * Treatment[L-carnitine] * Sex[F] ([1]; serum, model term): 0.2021 | TBARS, mixed model Estimate, term Treatment[L-carnitine] ([1]; serum, model term): −0.5222 | TBARS, mixed model Estimate, term Treatment[L-carnitine] * Sex[F] ([1]; serum, model term): 0.4031 | Myoglobin Least Sq Mean ([2]; Baseline): 10.1 ng/mL | Myoglobin Least Sq Mean ([2]; Baseline, F): 14.77 ng/mL | Myoglobin Least Sq Mean ([2]; Baseline, M): 5.43 ng/mL | Myoglobin, serum, Mean ([2]; Ex.1, 250 mg/d, Baseline, both sexes): 10.0 ng/mL | Myoglobin, serum, Mean ([2]; Ex.1, 250 mg/d, Baseline, females): 17.6 ng/mL | Myoglobin, serum, Mean ([2]; Ex.1, 250 mg/d, Baseline, males): 5.8 ng/mL | Myoglobin, serum, Mean ([2]; Ex.1, 250 mg/d, Post-run, both sexes): 19.2 ng/mL | Myoglobin, serum, Mean ([2]; Ex.1, 250 mg/d, Post-run, females): 24.5 ng/mL | Myoglobin, serum, Mean ([2]; Ex.1, 250 mg/d, Post-run, males): 14.9 ng/mL | Myoglobin, serum, Mean ([2]; Ex.1, 250 mg/d, Pre-run, both sexes): 9.0 ng/mL | Myoglobin, serum, Mean ([2]; Ex.1, 250 mg/d, Pre-run, females): 8.4 ng/mL | Myoglobin, serum, Mean ([2]; Ex.1, 250 mg/d, Pre-run, males): 9.3 ng/mL | Change in Myoglobin, post-run minus pre-run ([2]; Ex.1, 250 mg/d, females): 6.11 ± 3.51 n = 6 ng/mL | Change in Myoglobin, post-run minus pre-run ([2]; Ex.1, 250 mg/d, males): 7.04 ± 3.9 n = 10 ng/mL | Serum myoglobin values after exercise ([2]; Ex.1, 250 mg/d, post-run, summary text value, control 30.97): 19.67 ng/mL | Myoglobin Least Sq Mean ([2]; Post-run): 19.67 ng/mL | Myoglobin Least Sq Mean ([2]; Post-run, F): 24.46 ng/mL | Myoglobin Least Sq Mean ([2]; Post-run, M): 14.88 ng/mL | Myoglobin Least Sq Mean ([2]; Pre-run): 10.01 ng/mL | Myoglobin Least Sq Mean ([2]; Pre-run, F): 11.06 ng/mL | Myoglobin Least Sq Mean ([2]; Pre-run, M): 8.96 ng/mL | Myoglobin Least Sq Mean ([2]; Treatment * Sex, F): 14.77 ng/mL | Myoglobin Least Sq Mean ([2]; Treatment * Sex, M): 5.43 ng/mL | Myoglobin Least Sq Mean ([2]; Treatment level, all dogs): 10.1 ng/mL | Myoglobin, mixed model Estimate, term Time[Post-run-Pre-run] * Treatment[L-carnitine] ([2]; serum, model term): −7.625 | Myoglobin, mixed model Estimate, term Time[Post-run-Pre-run] * Treatment[L-carnitine] * Sex[F] ([2]; serum, model term): −3.63 | Myoglobin, mixed model Estimate, term Time[Pre-run-Baseline] * Treatment[L-carnitine] ([2]; serum, model term): 0.3222 | Myoglobin, mixed model Estimate, term Time[Pre-run-Baseline] * Treatment[L-carnitine] * Sex[F] ([2]; serum, model term): −0.369 | Myoglobin, mixed model Estimate, term Treatment[L-carnitine] ([2]; serum, model term): 1.653 | Myoglobin, mixed model Estimate, term Treatment[L-carnitine] * Sex[F] ([2]; serum, model term): 1.582
